# Columns and labels:
# [1] = system: latent HIV-1 in rCD4+ cells co-cultured with CD8+ cells; assay: HIV-1 reactivation in ex vivo co-cultures of rCD4+ and CD8+ cells from an ART-treated HIV patient (HIV RNA in supernatant); assay type: cell-based, human
# Method: The efficacy of IAPa, ICI or IAPa/ICI combinations in reversing HIV-1 latency was tested in HIV-1 infected rCD4+ cells co-cultured for 48 h with CD8+ cells from the same donor.
# Method: Blood from one HIV-1-infected patient under ART was collected (500 mL) and CD4+ and CD8+ cells isolated using beads coated with specific antibodies following manufacturer's instruction (MojoSort™ Human Cell Isolation Kits from Biolegend). The CD4+ T cells were re-infected with HIV-1 (JR-CSF) (1 μg of p24), incubated for 3 days to allow establishment of infection, and treated with ART ([…]) for 7 days to ensure presence of enough latent HIV CD4+ cells (rCD4+) in the culture. Upon ART removal, rCD4 were then isolated following manufacturer's instruction (EasySep™ Human Resting CD4+ T Cell Isolation Kit). The isolated rCD4 were mixed with autologous (from the same patient) uninfected CD8+ T cells at a 1:1 ratio (100,000 cells) and incubated in duplicate for 48 h with different IAPa ([…]) or ICI (10 μg/ml) in monotherapy, or the IAPa/ICI combinations. Amounts of virions released from cells were quantified at the indicated time points by quantifying HIV RNA levels (HIV RNA copies/mL) in supernatant of cell culture using one-step reverse transcriptase quantitative real-time PCR (ABI custom TaqMan Assays-by-Design) according to the manufacturer's instructions. Primers were 5-[…]-3 and 5-[…]-3, and MGB probe 5-FAM-[…]-Q-3, where FAM is 6-carboxyfluorescein.
# [2] = system: latent HIV in resting CD4+ T-lymphocytes; assay: HIV-1 reactivation in resting CD4+ T cells from PBMCs of three ART-treated HIV patients (HIV RNA in supernatant); assay type: cell-based, human
# Description: The experiments of this example analyzed the ability of IAPa, ICIs, or IAPa/ICI combinations at reactivating latent HIV in resting CD4+ T-lymphocytes isolated from peripheral blood monocytic cells (PBMCs) derived from HIV patients currently under ART.
# Method: Resting CD4+ T cells were isolated from PBMCs of three ART-treated HIV patients by negative selection and magnetic separation (Easysep Mouse/Human Chimera Isolation Kits from […] technologies). Isolated resting CD4+ T cells (50,000 cells/50 μL) were treated in duplicate for 48h with different IAPa (1 μM) or ICI (10 μg/ml) in monotherapy, or the IAPa/ICI combinations. Amounts of virions released from cells were quantified at the indicated time points by quantifying HIV RNA levels (HIV RNA copies/mL) in supernatant of cell culture using one-step reverse transcriptase quantitative real-time PCR (ABI custom TaqMan Assays-by-Design) according to the manufacturer's instructions. Primers were 5-[…]-3 and 5-[…]-3, and MGB probe 5-FAM-[…]-Q-3, where FAM is 6-carboxyfluorescein.
# (§1) The experiment was carried out using the same agents as described above for Example 8.1 (with the exception that no birinapant was used).
# [3] = system: latent HIV-1 in resting CD4+ T cells; assay: Ex vivo HIV-1 reactivation in human resting CD4+ T cells from ART-treated HIV-1-infected humanized BLT mice (HIV RNA in supernatant); assay type: cell-based
# Method: The efficacy of IAPa, ICI or IAPa/ICI combinations in reversing HIV-1 latency was tested in resting CD4+ T cells derived from ART-treated HIV-1-infected humanized BLT mice.
# Human resting CD4+ T cells from ten mice were isolated from blood, thymic organoid, lung, spleen, bone marrow, lymph nodes and liver. Isolated human resting CD4+ T cells were pooled, counted, split and treated in duplicate for 48 h with different IAPa (1 μM) or ICI (10 μg/ml) in monotherapy, or the IAPa/ICI combinations. Amounts of virions released from cells were quantified at the indicated time points by quantifying HIV RNA levels (HIV RNA copies/mL) in supernatant of cell culture using one-step reverse transcriptase quantitative real-time PCR (ABI custom TaqMan Assays-by-Design) according to the manufacturer's instructions. Primers were 5-[…]-3 and 5-[…]-3, and MGB probe 5-FAM-[…]-Q-3, where FAM is 6-carboxyfluorescein.
# as §1
# [4] = system: latent HIV-1 in 2D10 cells; assay: HIV-1 reactivation in latent GFP-reporter 2D10 cells, Debio 1143 and other LRAs alone or in combination; assay type: cell-based; details: LRA at single predetermined concentration with Debio 1143, already at 2 μM Debio 1143, 48 h
# Method: We compared the efficacy of Debio-1143 at reversing HIV-1 latency with that of other LRAs. We then analyzed the cytotoxicity of Debio-1143 with that of the other LRAs on 2D10 cells. Drug titration was conducted.
# Methods: HIV-1 latent GFP-reporter 2D10 cells (100,000 cells/100 μL) were treated in triplicate for 48 h with increasing concentrations of either only Debio-1143 or the LRAs (2000 nM or 20000 nM), or with Debio 1143 (2000 nM or 20000 nM) in combination with the LRAs at a single predetermined concentration (see Table 2). HIV reactivation was analyzed via GFP expression by flow cytometry.
# 2D10 cells = assay: Cytotoxicity by LDH assay in 2D10 cells; assay type: cell-based; details: 0 to 20 μM, 48 h
# Method: Drug titration was conducted.
# For analysis of cell viability, cells (100,000 cells/100 μL) were treated in triplicate for 48 h with increasing concentrations of Debio-1143 or other known LRAs (0 to 20 μM). Cellular cytotoxicity was analyzed by Lactate dehydrogenase (LDH) assay. LDH is an oxidoreductase enzyme that catalyzes the interconversion of pyruvate and lactate. Cells release LDH into the bloodstream after tissue damage or red blood cell hemolysis. Since LDH is a fairly stable enzyme, it has been widely used to evaluate the presence of damage and toxicity of tissue and cells. In this particular, LDH reduces NAD to NADH, which is specifically detected by colorimetric (490 nm) assay.
# BIRC2 = target: T1, BIRC2 (Homo sapiens, UniProt Q13490); assay: BIRC2 (cIAP1) degradation by Western blotting; assay type: cell-based; details: TNFα 10 ng/ml, 2D10 and 293T cells
# T1 construct: endogenous in cells; host or cells: 2D10, 293T and CD4+ T cells
# T1 sequence (Q13490 whole entry): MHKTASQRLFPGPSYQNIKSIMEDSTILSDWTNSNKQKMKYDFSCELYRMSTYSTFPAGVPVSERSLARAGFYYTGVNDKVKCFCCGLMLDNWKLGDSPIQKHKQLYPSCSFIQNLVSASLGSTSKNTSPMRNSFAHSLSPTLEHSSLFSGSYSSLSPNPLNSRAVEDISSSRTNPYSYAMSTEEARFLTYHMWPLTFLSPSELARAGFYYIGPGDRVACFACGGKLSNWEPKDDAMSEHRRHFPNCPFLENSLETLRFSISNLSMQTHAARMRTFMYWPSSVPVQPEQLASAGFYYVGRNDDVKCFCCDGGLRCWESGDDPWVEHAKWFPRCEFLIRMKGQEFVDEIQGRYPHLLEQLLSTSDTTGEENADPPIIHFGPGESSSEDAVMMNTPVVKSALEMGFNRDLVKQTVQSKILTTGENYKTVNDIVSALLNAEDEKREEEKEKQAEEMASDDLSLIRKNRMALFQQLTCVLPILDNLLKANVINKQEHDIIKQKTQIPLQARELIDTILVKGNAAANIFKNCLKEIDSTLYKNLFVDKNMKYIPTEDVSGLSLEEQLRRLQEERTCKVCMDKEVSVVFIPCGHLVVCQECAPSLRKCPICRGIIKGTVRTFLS
# Method: It was investigated whether Debio-1143 reverses HIV-1 latency by acting on the NF-κB pathway. Canonical and non-canonical NF-κB signaling pathways play an important role in the reactivation of latent HIV-1, implicating its regulation as an important therapeutic strategy for latency reversal.
# Method: 2D10 (A) or 293T (B) and CD4+ T cells (C) cells were treated with DMSO, Debio-1143 (1 μM) and TNFα (10 ng/ml) for the indicated times and analyzed by Western blotting for BIRC2 and IkBα protein expression using antibodies specifically detecting human BIRC2, human IkBα, or human CypA, such as commercially available (e.g. from R&D Systems, Cell Signaling, Santa Cruz Biotechnology, or other sources).
# [5] = IAPa 1 μM monotherapy (0.1% DMSO, no ICI), 48 h (Table 3)
# [6] = IAPa 1 μM with Control IgG1, 48 h (Table 3)
# [7] = IAPa 1 μM with Control IgG2, 48 h (Table 3)
# [8] = IAPa 1 μM monotherapy (0.1% DMSO, no ICI), 48 h
# [9] = IAPa 1 μM with Control IgG1, 48 h
# [10] = IAPa 1 μM with Control IgG2, 48 h
compound,measurement,setting,value
CC[C@H](NC(=O)[C@H](C)NC)C(=O)N1C[C@@H](O)C[C@H]1Cc1c(-c2[nH]c3cc(F)ccc3c2C[C@@H]2C[C@H](O)CN2C(=O)[C@H](CC)NC(=O)[C@H](C)NC)[nH]c2cc(F)ccc12 [Birinapant],latency reversal class (HIV RNA copies/ml in supernatant),"[1]; IAPa 1 μM monotherapy (0.1% DMSO, no ICI), 48 h (Table 4)",3 (Subsequent classes were defined accordingly in steps of 500 RNA copies/ml)
same,latency reversal class (HIV RNA copies/ml in supernatant),"[1]; IAPa 1 μM with Control IgG1, 48 h (Table 4)",3 (Subsequent classes were defined accordingly in steps of 500 RNA copies/ml)
same,latency reversal class (HIV RNA copies/ml in supernatant),"[1]; IAPa 1 μM with Control IgG2, 48 h (Table 4)",3 (Subsequent classes were defined accordingly in steps of 500 RNA copies/ml)
CN[C@@H](C)C(=O)N[C@H](C(=O)N1CCC[C@H]1C(=O)Nc1sc(-c2ncco2)nc1-c1ccccc1)C1CCCCC1 [CUDC-427],latency reversal class (HIV RNA copies/ml in supernatant),[1]; [5],3 (Subsequent classes were defined accordingly in steps of 500 RNA copies/ml)
same,latency reversal class (HIV RNA copies/ml in supernatant),[1]; [6],3 (Subsequent classes were defined accordingly in steps of 500 RNA copies/ml)
same,latency reversal class (HIV RNA copies/ml in supernatant),[1]; [7],3 (Subsequent classes were defined accordingly in steps of 500 RNA copies/ml)
same,latency reversal class (HIV RNA copies/ml in supernatant),[2]; [8],1 (Between 501 and 1000 RNA copies/ml were classified as “1”)
same,latency reversal class (HIV RNA copies/ml in supernatant),[2]; [9],1 (Between 501 and 1000 RNA copies/ml were classified as “1”)
same,latency reversal class (HIV RNA copies/ml in supernatant),[2]; [10],1 (Between 501 and 1000 RNA copies/ml were classified as “1”)
same,latency reversal class (HIV RNA copies/ml in supernatant),[3]; [8],2 (Between 2501 and 5000 RNA copies/ml were classified as “2”)
same,latency reversal class (HIV RNA copies/ml in supernatant),[3]; [9],2 (Between 2501 and 5000 RNA copies/ml were classified as “2”)
same,latency reversal class (HIV RNA copies/ml in supernatant),[3]; [10],2 (Between 2501 and 5000 RNA copies/ml were classified as “2”)
Cc1sc2c(c1C)C(c1ccc(Cl)cc1)=N[C@@H](CC(=O)OC(C)(C)C)c1nnc(C)n1-2 [JQ1],degree of HIV reactivation in combination with Debio 1143,[4],high degrees of HIV reactivation
CN[C@@H](C)C(=O)N[C@H](C(=O)N1CCC[C@H]1c1nc(C(=O)c2ccc(F)cc2)cs1)C1CCCCC1 [LCL161],latency reversal class (HIV RNA copies/ml in supernatant),[1]; [5],3 (Subsequent classes were defined accordingly in steps of 500 RNA copies/ml)
same,latency reversal class (HIV RNA copies/ml in supernatant),[1]; [6],2 (Subsequent classes were defined accordingly in steps of 500 RNA copies/ml)
same,latency reversal class (HIV RNA copies/ml in supernatant),[1]; [7],3 (Subsequent classes were defined accordingly in steps of 500 RNA copies/ml)
same,latency reversal class (HIV RNA copies/ml in supernatant),[2]; [8],1 (Between 501 and 1000 RNA copies/ml were classified as “1”)
same,latency reversal class (HIV RNA copies/ml in supernatant),[2]; [9],1 (Between 501 and 1000 RNA copies/ml were classified as “1”)
same,latency reversal class (HIV RNA copies/ml in supernatant),[2]; [10],1 (Between 501 and 1000 RNA copies/ml were classified as “1”)
same,latency reversal class (HIV RNA copies/ml in supernatant),[3]; [8],2 (Between 2501 and 5000 RNA copies/ml were classified as “2”)
same,latency reversal class (HIV RNA copies/ml in supernatant),[3]; [9],2 (Between 2501 and 5000 RNA copies/ml were classified as “2”)
same,latency reversal class (HIV RNA copies/ml in supernatant),[3]; [10],2 (Between 2501 and 5000 RNA copies/ml were classified as “2”)
CCC/C=C/C=C/C(=O)O[C@H]1/C(=C/C(=O)OC)C[C@H]2C[C@H]([C@@H](C)O)OC(=O)C[C@H](O)C[C@@H]3C[C@H](OC(C)=O)C(C)(C)[C@](O)(C[C@@H]4C/C(=C/C(=O)OC)C[C@H](/C=C/C(C)(C)[C@]1(O)O2)O4)O3 [bryostatin-1],degree of HIV reactivation in combination with Debio 1143,[4],high degrees of HIV reactivation
same,cytotoxicity (LDH assay),2D10 cells,highly toxic
CN1C(=O)[C@@]23C[C@]4([C@]56C[C@@]78SS[C@@](CO)(C(=O)N7[C@H]5Nc5ccccc56)N(C)C8=O)c5ccccc5N[C@@H]4N2C(=O)[C@]1(CO)SS3 [chaetocin],cytotoxicity (LDH assay),2D10 cells,highly toxic
Nc1ccccc1NC(=O)c1ccc(CNC(=O)OCc2cccnc2)cc1 [entinostat],degree of HIV reactivation in combination with Debio 1143,[4],high degrees of HIV reactivation
Cc1[nH]c2ccccc2c1CCNCc1ccc(/C=C/C(=O)NO)cc1 [panobinostat],cytotoxicity (LDH assay),2D10 cells,highly toxic
O=C(CCCCCCC(=O)Nc1ccccc1)NO [vorinostat],degree of HIV reactivation in combination with Debio 1143,[4],high degrees of HIV reactivation
TNFα [reference compound],BIRC2 degradation,BIRC2,not
